Several values for one entry are separate records, joined by “and”; a condition that tells them apart may be missing. Identical values can stand only once.
Test system: HL60 (human promyelocytic leukemia) cells
Test: LMA-FlexMAP bead-based gene expression signature analysis of total RNA from HL60 cells treated with tretinoin or DMSO (ninety transcripts); on NM 000884 LUA#81 FlexMAP signal: test concentration or dose not given here; on NM 001469 LUA#79 FlexMAP signal: test concentration or dose not given here

CC1=C(/C=C/C(C)=C/C=C/C(C)=C/C(=O)O)C(C)(C)CCC1 [tretinoin, all-trans-retinoic acid]
ACTB LUA#91 FlexMAP signal (Experiment 1, tretinoin-treated HL60, transcript ACTB, replicate columns): 2313 and 2609 and 1929 and 2483 and 818 and 2425.5 and 2563 and 1173 and 2347 and 2296.5
GAPDH_3 LUA#95 FlexMAP signal (Experiment 1, tretinoin-treated HL60, transcript GAPDH_3, replicate columns): 2580 and 2982 and 2428 and 2979 and 1102.5 and 2911 and 2912 and 1645 and 2823 and 2559
GAPDH_5 LUA#93 FlexMAP signal (Experiment 1, tretinoin-treated HL60, transcript GAPDH_5, replicate columns): 1299 and 1629 and 998.5 and 1419 and 378.5 and 1433 and 1505.5 and 632 and 1469 and 1347
GAPDH_M LUA#94 FlexMAP signal (Experiment 1, tretinoin-treated HL60, transcript GAPDH_M, replicate columns): 1360.5 and 1575 and 1134 and 1511.5 and 460 and 1520 and 1502 and 698.5 and 1462 and 1334
NM_000147 LUA#29 FlexMAP signal (Experiment 1, tretinoin-treated HL60, transcript NM_000147, replicate columns): 764 and 894 and 573 and 861 and 195.5 and 822.5 and 850 and 302 and 783 and 763
NM_000211 LUA#39 FlexMAP signal (Experiment 1, tretinoin-treated HL60, transcript NM_000211, replicate columns): 1294.5 and 1488 and 1125 and 1420 and 454.5 and 1349 and 1366.5 and 682 and 1361 and 1315
NM_000250 LUA#87 FlexMAP signal (Experiment 1, tretinoin-treated HL60, transcript NM_000250, replicate columns): 164 and 198 and 194 and 74 and 177 and 187 and 95.5 and 173 and 166
NM_000414 LUA#22 FlexMAP signal (Experiment 1, tretinoin-treated HL60, transcript NM_000414, replicate columns): 372.5 and 470.5 and 270 and 442 and 100 and 408.5 and 415 and 145 and 402.5 and 373
NM_000433 LUA#28 FlexMAP signal (Experiment 1, tretinoin-treated HL60, transcript NM_000433, replicate columns): 536.5 and 647 and 442.5 and 640 and 144 and 605 and 622 and 228.5 and 564 and 532
NM_000584 LUA#30 FlexMAP signal (Experiment 1, tretinoin-treated HL60, transcript NM_000584, replicate columns): 1765 and 2115 and 1464 and 1938.5 and 476 and 1981.5 and 1945 and 799.5 and 1938 and 1717
NM_000884 LUA#81 FlexMAP signal (Experiment 1, tretinoin-treated HL60, transcript NM_000884, replicate columns): 799 (2×) and 946 and 676 and 871.5 and 250 and 871 and 865 and 389 and 830.5
NM_001034 LUA#67 FlexMAP signal (Experiment 1, tretinoin-treated HL60, transcript NM_001034, replicate columns): 191 and 243 and 157 and 225 and 73 and 209 and 212.5 and 92 and 219 and 185
NM_001101 LUA#34 FlexMAP signal (Experiment 1, tretinoin-treated HL60, transcript NM_001101, replicate columns): 2722 and 3119.5 and 2773 and 2969.5 and 1490 and 2968.5 and 2890 and 1977 and 2893.5 and 2694
NM_001469 LUA#79 FlexMAP signal (Experiment 1, tretinoin-treated HL60, transcript NM_001469, replicate columns): 1076 and 1221 and 809 and 1179 (2×) and 284 and 1191 and 463 and 1140.5 and 1077
NM_001498 LUA#18 FlexMAP signal (Experiment 1, tretinoin-treated HL60, transcript NM_001498, replicate columns): 361 and 424 and 279 and 402 and 96 and 374 and 412 and 140 and 360 and 335.5
NM_001684 LUA#23 FlexMAP signal (Experiment 1, tretinoin-treated HL60, transcript NM_001684, replicate columns): 69 and 68 and 54 and 66.5 and 41 and 65 (2×) and 43 and 61 and 63
NM_001948 LUA#84 FlexMAP signal (Experiment 1, tretinoin-treated HL60, transcript NM_001948, replicate columns): 58 and 75 and 61 and 73 and 47 and 63 and 71 and 51 and 76 and 66
NM_002166 LUA#25 FlexMAP signal (Experiment 1, tretinoin-treated HL60, transcript NM_002166, replicate columns): 154 and 180 and 124.5 and 159.5 and 61 and 168 and 159 and 79.5 and 156.5 and 152
NM_002467 LUA#90 FlexMAP signal (Experiment 1, tretinoin-treated HL60, transcript NM_002467, replicate columns): 1030 and 801 and 702 and 736 and 256 and 792.5 and 842.5 and 399 and 957 and 976
NM_002468 LUA#40 FlexMAP signal (Experiment 1, tretinoin-treated HL60, transcript NM_002468, replicate columns): 418 and 492 and 325 and 448.5 and 121 and 496.5 and 473 and 174.5 and 426.5 and 399.5
NM_002539 LUA#74 FlexMAP signal (Experiment 1, tretinoin-treated HL60, transcript NM_002539, replicate columns): 276 and 362 and 231 and 326 and 85 and 313 and 314.5 and 131 and 300 and 281.5
NM_002624 LUA#36 FlexMAP signal (Experiment 1, tretinoin-treated HL60, transcript NM_002624, replicate columns): 1288 and 1492.5 and 1267 and 1418 and 576 and 1447 and 1402 and 820 and 1224.5
NM_002664 LUA#38 FlexMAP signal (Experiment 1, tretinoin-treated HL60, transcript NM_002664, replicate columns): 2325 and 2761 and 2157 and 2552 and 892 and 2527 and 2504 and 1337 and 2394 and 2330
NM_002970 LUA#42 FlexMAP signal (Experiment 1, tretinoin-treated HL60, transcript NM_002970, replicate columns): 1455 and 1683.5 and 1181 and 1595 and 400 and 1478 and 1584 and 651 and 1503 and 1459
NM_002982 LUA#45 FlexMAP signal (Experiment 1, tretinoin-treated HL60, transcript NM_002982, replicate columns): 3488 and 3786 and 3231 and 3797 and 1738 and 3852 and 3752 and 2466 and 3667 and 3451
NM_003132 LUA#68 FlexMAP signal (Experiment 1, tretinoin-treated HL60, transcript NM_003132, replicate columns): 488 (2×) and 596 and 410 and 540 and 148 and 523 and 517 and 212 and 467.5
NM_003172 LUA#19 FlexMAP signal (Experiment 1, tretinoin-treated HL60, transcript NM_003172, replicate columns): 243 and 276 and 208 and 286 and 86 and 264 and 257 and 121 and 260 and 235
NM_003332 LUA#43 FlexMAP signal (Experiment 1, tretinoin-treated HL60, transcript NM_003332, replicate columns): 2387.5 and 2641 and 2219 and 2571.5 and 1100 and 2688.5 and 2573.5 and 1470 and 2528 and 2325
NM_003581 LUA#62 FlexMAP signal (Experiment 1, tretinoin-treated HL60, transcript NM_003581, replicate columns): 53 and 57 and 147 and 80 and 50 (2×) and 65 and 52 and 43 and 42
NM_003644 LUA#17 FlexMAP signal (Experiment 1, tretinoin-treated HL60, transcript NM_003644, replicate columns): 282 and 272 and 195.5 and 252 and 105 and 266.5 and 259 and 142 and 271.5 and 260
NM_003752 LUA#82 FlexMAP signal (Experiment 1, tretinoin-treated HL60, transcript NM_003752, replicate columns): 130.5 and 145.5 and 114 and 144.5 and 71 and 128.5 and 142 and 94 and 137.5 and 124.5
NM_003879 LUA#24 FlexMAP signal (Experiment 1, tretinoin-treated HL60, transcript NM_003879, replicate columns): 72.5 and 77.5 and 57 and 80 (2×) and 41 and 71 and 76 and 53 and 67
NM_004079 LUA#21 FlexMAP signal (Experiment 1, tretinoin-treated HL60, transcript NM_004079, replicate columns): 113 and 129 and 93 and 124.5 and 55 and 127 and 122 and 70 and 125.5 and 99.5
NM_004095 LUA#59 FlexMAP signal (Experiment 1, tretinoin-treated HL60, transcript NM_004095, replicate columns): 203 and 247 and 148 and 227 and 78 and 212 (2×) and 101 and 214.5 and 194.5
NM_004106 LUA#44 FlexMAP signal (Experiment 1, tretinoin-treated HL60, transcript NM_004106, replicate columns): 1187 and 1452 and 994 and 1303 and 373 and 1308 and 1315 and 576.5 and 1274.5 and 1218
NM_004134 LUA#76 FlexMAP signal (Experiment 1, tretinoin-treated HL60, transcript NM_004134, replicate columns): 278 and 318 and 207 and 277 and 83.5 and 292 and 306 and 111 and 280 and 266.5
NM_004152 LUA#31 FlexMAP signal (Experiment 1, tretinoin-treated HL60, transcript NM_004152, replicate columns): 1944 and 2194 and 1662 and 2073 and 775 and 2127.5 and 2117 and 1110 and 2045 and 1823
NM_004526 LUA#88 FlexMAP signal (Experiment 1, tretinoin-treated HL60, transcript NM_004526, replicate columns): 192 and 223 and 150 and 213 and 77 and 208 and 192.5 and 101 and 206.5 and 182.5
NM_004602 LUA#32 FlexMAP signal (Experiment 1, tretinoin-treated HL60, transcript NM_004602, replicate columns): 215.5 and 258 and 182 and 239 and 88 and 232.5 and 227.5 and 113.5 and 224 and 212
NM_004723 LUA#20 FlexMAP signal (Experiment 1, tretinoin-treated HL60, transcript NM_004723, replicate columns): 380 and 446 and 318 and 394 and 127 and 418.5 and 388.5 and 184 and 400 and 363.5
NM_004741 LUA#89 FlexMAP signal (Experiment 1, tretinoin-treated HL60, transcript NM_004741, replicate columns): 205 and 208 and 168 and 215 and 100 and 204 and 198 and 116 and 214 and 204.5
NM_004759 LUA#37 FlexMAP signal (Experiment 1, tretinoin-treated HL60, transcript NM_004759, replicate columns): 116 and 149.5 and 148 and 139.5 and 53 and 128 and 141 and 67 and 134 and 103
NM_005008 LUA#77 FlexMAP signal (Experiment 1, tretinoin-treated HL60, transcript NM_005008, replicate columns): 343 and 416 and 307 and 392 and 123 and 401 and 382.5 and 167 and 372 and 338.5
NM_005375 LUA#86 FlexMAP signal (Experiment 1, tretinoin-treated HL60, transcript NM_005375, replicate columns): 780.5 and 638 and 523 and 594.5 and 238 and 631.5 and 617 and 351 and 734 and 717
NM_005566 LUA#85 FlexMAP signal (Experiment 1, tretinoin-treated HL60, transcript NM_005566, replicate columns): 540 and 632.5 and 583.5 and 642 and 150 and 607 and 596 and 219 and 577 and 523.5
NM_005914 LUA#60 FlexMAP signal (Experiment 1, tretinoin-treated HL60, transcript NM_005914, replicate columns): 881.5 and 948 and 566.5 and 843 and 209 and 866 and 848.5 and 351 and 885 and 795
NM_005915 LUA#72 FlexMAP signal (Experiment 1, tretinoin-treated HL60, transcript NM_005915, replicate columns): 44 (2×) and 59 and 39 and 54 and 34.5 and 56 and 41 and 51 and 47

Reference: patent US20110015080A1, “Solution-based methods for RNA expression profiling” (MASSACHUSETTS INSTITUTE OF TECHNOLOGY, priority 2005, published 2011)
